Read-outs that look alike come from different tables or passages of the source.
Key:
[1] = test system: C57BL/6J male mice; assay: Long term memory for object recognition; type: in vivo; conditions: 3, 10, 30 mg/kg subcutaneous; object recognition memory task
Protocol: C57BL/6J male mice were handled 1-2 min for 5 days and were habituated to the experimental apparatus 5 min a day for 4 consecutive days in the absence of objects. […] 24-h later mice were tested for memory retention (5 min) using the object recognition memory task (ORM), in which a familiar object was replaced with a novel one. All training and testing trials were videotaped and analyzed by individuals blind to the treatment condition and the genotype of subjects. A mouse was scored as exploring an object when its head was oriented toward the object within a distance of 1 cm or when the nose was touching the object. The relative exploration time was recorded and expressed by a discrimination index [DI=(tnovel−tfamiliar)/(tnovel+tfamiliar)×100].

[2] = Compound stability in hepatocytes; conditions: human hepatocytes, 5 μM compound
Protocol: To assess the stability and metabolism of RGFP compounds in hepatocytes. This assay was designed to evaluate the metabolism of RGFP compounds, following their incubation with human, monkey, dog and rat hepatocytes by monitoring either parent drug disappearance or metabolite appearance using HPLC.
Procedure: • Turn on the water-bath heater to 37° C. • Take out the KHB buffer and make sure it is at room temp before use • Prepare 2.5 mM concentration of RGFP compound in DMSO stock • Add 10 μL of above DMSO stock to 2490 μL KHB buffer; final concentration of RGFP compound will be 10 μM • Pre-warm 45 ml InVitro HT Medium to 37° C. in a sterile 50 ml conical tube • Add 1.0 mL Torpedo Antibiotic Mix per 45 mL InVitro HT medium • Transfer 13 mL of warm HT medium with Antibiotic Mix into a 15 mL conical tube. • Carefully remove the hepatocyte vials from liquid nitrogen (liquid phase). • Immediately immerse the vial into a 37° C. water bath. Shake gently until the ice melts entirely. […] Loosen the cell pellet by gently swirling the centrifuge tube • Transfer 100 μL of above solution to a different tube and add 900 μL of KHB buffer to count the cells • Determine the total cell count and the number of viable cells using the Trypan Blue exclusion method • Once you obtain the cell count, multiply the number by 10 (attributing to the dilution factor) • Now add required volume of KHB buffer to the tube containing hepatocytes such that the final count will be 2 million cells/mL • Dispense 50 μL of 2 million cells/ml to a 96 well plate and then add 50 μl of DMSO stock to respective wells (such that, the concentration of RGFP compounds is 5 μM and number of cells are 100000 in each well) • Place the plates on a shaker in a 37° C. incubator with 5% CO2 • Separate plates for each time point are advisable (Time points: 0 h, 1 h, 2 h, and 6 h) • After each time point, add 100 μL of quenching solution. • Quenching solution is an acetonitrile solution containing RGFP531 (10 μM) internal standard, 0.1% formic acid and phenylglyoxol (400 μM). The formic acid and phenylglyoxal is used for the identification and quantification of OPD as mentioned above. • Pipette up and down a few times to ensure a complete stop of reaction • Transfer all the solution into a 1.5 ml tube, vortex thoroughly, and centrifuge at 14000 RPM at 4° C. for 5 minutes to precipitate cell debris
Transfer the 150 μL of supernatant to vials for analysis using HPLC

[3] = test system: HCT116 cells; assay: Cell proliferation assay; type: cell-based; conditions: Homo sapiens, HCT-116, 72 h, read-out: Hct-116 (anti-proliferation IC50)
Protocol: HCT116 cells (5000 cells/well) in 80 μL McCoy's 5 A medium containing 10% v/v FBS, 1% v/v penicillin/streptomycin and 1% v/v L-glutamine were incubated in 96-well plates with compounds at various concentrations for 72 h at 37° C. in a 5% CO2 atmosphere. The compound dilutions were made in 100% DMSO followed by parallel dilutions in media. The final concentration of DMSO in each well was 0.05%. After 72 h, 20 μL of Cell titer 96 aqueous one solution (Promega Corporation, Madison, Wis.) were added to the cells and the plate was incubated at 37° C. for another 4 h. The absorbance at 490 nm was then recorded on a 96-well plate reader (Spectramax M2, Molecular Devices, Sunnyvale, Calif.). Data analysis was performed in Microsoft Excel (Microsoft Corp, Redmond, Wash.).

[4] = Brain penetration studies; conditions: Table 4; mice dosed s.c. at 5 mg/kg or 50 mg/kg, or i.v. at 5 mg/kg; Cmax(brain)/Cmax(plasma)
Protocol: Test compounds were prepared at either 0.5 mg/ml or 5 mg/ml in 30% hydroxypropyl-β-cyclodextrin, 100 mM sodium acetate pH 5.5, 5% DMSO. C57/BL6/J mice were dosed s.c. at 5 mg/kg or 50 mg/kg, or i.v. at 5 mg/kg. Animals were euthanized at pre-dose, 5, 15, 30 min, 1, 2 and 4 hours post-dose and plasma and brain obtained. Three animals per dose per time points were used. The levels of compound in the plasma and brain were determined by standard LC/MS/MS methods. Brain/plasma ratio (BPR) was calculated as the ratio of the Cmax(brain)/Cmax(plasma).

[5] = test system: GM 15850 (lymphoblastoid cells line) cells; assay: In-cell deacetylase inhibition assay (DAC assay); type: cell-based; conditions: Homo sapiens, GM15850, GM 15850 cells, 4 h incubation
Protocol: Compound dilutions were made in 100% DMSO followed by parallel dilution in media with 2% DMSO. 10 μl of the compound dilutions were added to the cells to achieve the desired concentrations. The final concentration of DMSO in each well was 0.2%. The cells were incubated for 4 h at 37° C. with 5% CO2. After incubation, the cells were centrifuged down and the supernatant was removed. […] The reaction was stopped after 30 min incubation by addition of 50 μL developer (6 mg/mL trypsin in HDAC assay buffer). The reaction was allowed to develop for 30 min at room temperature and the fluorescence signal was detected using a fluorometer (Spectramax M2, Molecular Devices, Sunnyvale, Calif.) with excitation and emission wavelengths of 360 nm and 470 nm respectively. The data was fitted to a sigmoidal dose response equation with variable slope in GraphPad Prism 5.0 (GraphPad Software, La Jolla, Calif.) to determine IC50. Bottom and top of the curve were fixed to the average fluorescence response of control wells with no cells and cells but no compound respectively.

[6] = test system: frataxin (FXN) mRNA in primary lymphocytes from Friedreich's ataxia patient donors; assay: Effect of HDAC inhibitors on frataxin (FXN) mRNA expression; type: cell-based, human; conditions: Table 4, concentration required for a 2-fold increase in FXN mRNA, 48 hours
Protocol: Blood is collected from Friedreich's ataxia patient donors into tubes containing the anti-coagulant EDTA. Primary lymphocytes are isolated using Lymphocyte Separation Medium (MP Biomedicals, Solon, Ohio) following the manufacturer's instructions and including a few modifications made by Repligen. After a final wash in Phosphate Buffered Saline (PBS), the cells are distributed into a 6-well cell culture plate in cell growth medium. The test HDAC inhibitor compound is added to cells in a dose escalating manner (usually concentrations range from 1 to 10 μM) and 0.1% DMSO is added to one well of cells as a no treatment control. Cells are incubated for 48 hours at 37° C. in a CO2 incubator; cell counts are taken using a Countess automated cell counter (Invitrogen, Carlsbad, Calif.). Equivalent numbers of cells for all treatment conditions are pelleted by centrifugation and resuspended in cell lysis buffer. Total RNA is isolated from approximately 1×10^6 primary lymphocytes using a RNeasy Mini Kit (Qiagen, Valencia, Calif.), following the manufacturer's instructions and including an optional on-column DNAse digestion step. […] The RNA yield and concentration is determined using a Nanodrop spectrophotometer (Thermo Fisher Scientific, Waltham, Mass.) and depending on the RNA concentration, one of two protocols is used to measure frataxin (FXN) transcript levels. […] In both methods each RNA sample is analyzed in triplicate (preferably) or duplicate (minimally) using a one-step qRT-PCR master mix that contains all the components necessary for cDNA synthesis and PCR amplification in a single, continuous reaction. […] The amount of FXN (or GAPDH) in the sample is determined as the relative quantity to the calibrator where the calibrator sample is assigned an arbitrary quantity of 1. The following equation is used: Relative quantity to the calibrator=2^−ΔCt where ΔCt=(Ct_gene)unknown−(Ct_gene)calibrator, gene is either FXN or GAPDH, calibrator is a DMSO control sample, and unknown is a HDACi treated sample. The relative quantity of FXN is normalized to cell number and RNA input. […]

% left 6h Hum [2]	BPR [4]	IC50 ([5]; Table 4, read-out: DAC IC50) [µM]	SMILES	also measured
			Nc1cc(F)ccc1NC(=O)/C=C/c1cnn(C/C=C/c2ccccc2)c1 [D2, (E)-N-(2-amino-4-fluorophenyl)-3-(1-cinnamyl-1H-pyrazol-4-yl)acrylamide]	dose dependence of the effect on long-term memory [1]: no effect of dose
A (50%<A)			CC(C)(O)CN1CC(=Cc2ccc(C(=O)Nc3ccccc3N)cc2)C1 [F19]	
			Nc1ccccc1NC(=O)/C=C/c1cnn(CCOc2cc(F)cc(Cl)c2)c1 [B5, (E)-N-(2-aminophenyl)-3-(1-(2-(3-chloro-5-fluorophenoxy)ethyl)-1H-pyrazol-4-yl)acrylamide]	IC50 [3]: 10 to 20 µM
A (50%<A)	A (A is greater than 1)	1 to 5	CC(C)(O)CN1CCC(=Cc2ccc(C(=O)Nc3ccccc3N)cc2)CC1 [F15]	Fxn >2X (uM) [6]: A (A if less than 5 μM)
A (50%<A)	A (A is greater than 1)	< 1	Nc1ccccc1NC(=O)c1ccc(C=C2CN(CC3CC3)C2)cc1 [F12]	Fxn >2X (uM) [6]: A (A if less than 5 μM)
	A (A is greater than 1)	1 to 5	CC(C)(C)CN1CCC(=Cc2ccc(C(=O)Nc3ccccc3N)cc2)CC1 [F14]	Fxn >2X (uM) [6]: A (A if less than 5 μM)
		5 to 10	Nc1ccccc1NC(=O)c1ccc(C=C2CCN(Cc3cccnc3)CC2)c(Cl)c1 [F7]	
	A (A is greater than 1)		Nc1ccccc1NC(=O)c1ccc(C=C2CCN(CC3CC3)CC2)cc1 [F13]	
IA (IA<10%)		< 1	Nc1ccccc1NC(=O)c1ccc(C=C2COC2)cc1F [F9]	
			Cc1ccc(C(=O)NCCCCCC(=O)Nc2ccc(F)cc2N)cc1 [RGFP 136, reference compound]	dose dependence of the effect on long-term memory [1]: Dose dependent effects
			Cn1cnc(/C=C/C(=O)Nc2ccccc2N)c1 [A12]	IC50 [3]: > 20 µM
A (50%<A)			Nc1cc(F)ccc1NC(=O)c1ccc(C=C2CN(CC3CC3)C2)cc1 [F20]	
			Nc1ccccc1NC(=O)/C=C/c1csc(C/C=C/c2ccccc2)n1 [E2, (E)-N-(2-aminophenyl)-3-(2-cinnamylthiazol-4-yl)acrylamide]	IC50 [3]: > 20 µM; IC50 ([5]; read-out: 850 DAC (in-cell deacetylase inhibition IC50)): 10 to 20 µM

SMILES	% left 6h Hum [2]	BPR [4]	IC50 ([5]; Table 4, read-out: DAC IC50) [µM]	also measured
Nc1ccccc1NC(=O)c1ccc(C=C2COC2)c(Cl)c1 [F11]		A (A is greater than 1)	< 1	
CN1C2CCC1CC(=Cc1ccc(C(=O)Nc3ccccc3N)cc1Cl)C2 [F8]			< 1	
Nc1ccccc1NC(=O)c1ccc(C=C2CN(CC3CC3)C2)c(Cl)c1 [F10]		A (A is greater than 1)	5 to 10	

From patent publication US10301323B2, “Histone deacetylase inhibitors” (BIOMARIN PHARMACEUTICAL INC., priority 2011, dated 2019)
